Assays:
[1] = biological target: EIF2AK3 (PERK) catalytic domain (amino acids 536-1116) (Homo sapiens (Human), UniProt Q9NZJ5); assay: PERK in vitro activity assay (isolated), TR-FRET kinase assay; settings: isolated PERK enzyme, 1.5 μM ATP, GFP-eIF2a substrate; read-out: Biochemical IC50
Source text: PERK In Vitro Activity Assay (Isolated):
In vitro Inhibition of PERK Enzyme Activity (isolated) Recombinant human EIF2AK2 (PKR) catalytic domain (amino acids 252-551), EIF2AK3 (PERK) catalytic domain (amino acids 536-1116), GFP-eIF2a substrate, and Terbium-labelled phospho-eIF2a antibody is obtained (Invitrogen, Carlsbad, CA).
Express and purify HIS-SUMO-GCN2 catalytic domain (amino acids 584-1019) from E. coli. Perform TR-FRET kinase assays in the absence or presence of inhibitors in a reaction buffer consisting of 50 mM HEPES, pH 7.5, 10 mM MgCb, 1.0 mM EGTA, and 0.01% Brij-35, and 100-200 nM GFP-eIF2a substrate. […] Add test compound, initiate the reaction by addition of enzyme, and incubate at room temperature for 45 minutes. Stop the reaction by addition of EDTA to a final concentration of 10 mM, add Terbium-labelled phospho-eIF2a antibody at a final concentration of 2 nM, and incubate for 90 minutes. Monitor the resulting fluorescence in an EnVison® Multilabel reader (PerkinElmer, Waltham, MA). Determine TR-FRET ratios and the resulting IC50 values using a 4-parameter nonlinear logistic equation as shown: Y=(A+((B−A)/(1+((C/x)[…])))) where, Y=% specific inhibition, A=Bottom of the curve, B=Top of the curve, C=absolute IC50 (concentration causing 50% inhibition), and D=hill slope.

PERK = PERK (Homo sapiens (Human), UniProt Q9NZJ5); assay: PERK cellular assay (TR-FRET, HEK293-EGFP-eIF2α cells, tunicamycin-induced ER stress); assay type: cell-based; settings: tunicamycin 2 hours, read-out: Cellular IC50 (μM) (EIF2a)
Chain of PERK (Q9NZJ5 30-1116): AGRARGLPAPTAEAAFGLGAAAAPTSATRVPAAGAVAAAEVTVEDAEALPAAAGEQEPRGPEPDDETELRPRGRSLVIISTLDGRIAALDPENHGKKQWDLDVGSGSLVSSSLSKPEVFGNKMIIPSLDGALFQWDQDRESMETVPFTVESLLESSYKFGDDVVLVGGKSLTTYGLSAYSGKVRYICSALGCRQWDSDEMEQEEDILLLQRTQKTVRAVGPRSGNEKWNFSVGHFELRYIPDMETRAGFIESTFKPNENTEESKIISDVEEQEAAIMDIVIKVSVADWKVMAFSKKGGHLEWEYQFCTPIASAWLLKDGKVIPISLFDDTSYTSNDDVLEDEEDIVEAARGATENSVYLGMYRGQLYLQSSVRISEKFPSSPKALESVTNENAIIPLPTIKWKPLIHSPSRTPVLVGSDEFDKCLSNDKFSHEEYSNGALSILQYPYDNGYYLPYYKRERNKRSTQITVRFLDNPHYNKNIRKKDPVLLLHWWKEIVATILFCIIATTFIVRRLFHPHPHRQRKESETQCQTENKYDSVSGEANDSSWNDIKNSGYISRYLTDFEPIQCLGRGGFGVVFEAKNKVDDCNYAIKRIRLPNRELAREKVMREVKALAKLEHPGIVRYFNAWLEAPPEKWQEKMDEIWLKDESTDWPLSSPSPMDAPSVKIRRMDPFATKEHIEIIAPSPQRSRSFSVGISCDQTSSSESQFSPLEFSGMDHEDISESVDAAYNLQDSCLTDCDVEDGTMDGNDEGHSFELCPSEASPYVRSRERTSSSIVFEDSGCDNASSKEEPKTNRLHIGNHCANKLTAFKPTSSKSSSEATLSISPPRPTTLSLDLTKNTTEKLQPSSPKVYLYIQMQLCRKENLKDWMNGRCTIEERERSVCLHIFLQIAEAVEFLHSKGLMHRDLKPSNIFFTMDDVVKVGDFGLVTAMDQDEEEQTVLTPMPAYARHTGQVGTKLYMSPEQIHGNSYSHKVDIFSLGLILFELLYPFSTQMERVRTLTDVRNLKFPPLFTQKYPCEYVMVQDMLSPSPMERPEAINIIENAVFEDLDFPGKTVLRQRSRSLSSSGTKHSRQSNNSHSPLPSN
Procedure: Stable cell lines were created in HEK293 cells using lentiviral particles harboring an expression vector for GFP-eIF2α. Cells were selected using puromycin and enriched using fluorescence activated cell sorting against GFP. HEK293-EGFP-eIF2α cells were plated at 5000 cells/well in 384-well assay plates and incubated overnight at 37° C., 5% CO2. Inhibitor compounds were added to the wells by Echo acoustic dispensing and incubated for 30 minutes at 37° C., 5% CO2 prior to induction of ER stress by addition of tunicamycin to […] for 2 hours. Cells were lysed and TR-FRET was measured in an EnVision plate reader (PerkinElmer). FRET ratio data was normalized to signal from lysates treated with DMSO vehicle control and plotted as percent inhibition against 10-point; 3-fold dilution series of inhibitors. IC50 values were calculated using 4-parameter logistical fitting in XLFit.

Chain of EIF2AK3 (PERK) catalytic domain (amino acids 536-1116) (Q9NZJ5 536-1116): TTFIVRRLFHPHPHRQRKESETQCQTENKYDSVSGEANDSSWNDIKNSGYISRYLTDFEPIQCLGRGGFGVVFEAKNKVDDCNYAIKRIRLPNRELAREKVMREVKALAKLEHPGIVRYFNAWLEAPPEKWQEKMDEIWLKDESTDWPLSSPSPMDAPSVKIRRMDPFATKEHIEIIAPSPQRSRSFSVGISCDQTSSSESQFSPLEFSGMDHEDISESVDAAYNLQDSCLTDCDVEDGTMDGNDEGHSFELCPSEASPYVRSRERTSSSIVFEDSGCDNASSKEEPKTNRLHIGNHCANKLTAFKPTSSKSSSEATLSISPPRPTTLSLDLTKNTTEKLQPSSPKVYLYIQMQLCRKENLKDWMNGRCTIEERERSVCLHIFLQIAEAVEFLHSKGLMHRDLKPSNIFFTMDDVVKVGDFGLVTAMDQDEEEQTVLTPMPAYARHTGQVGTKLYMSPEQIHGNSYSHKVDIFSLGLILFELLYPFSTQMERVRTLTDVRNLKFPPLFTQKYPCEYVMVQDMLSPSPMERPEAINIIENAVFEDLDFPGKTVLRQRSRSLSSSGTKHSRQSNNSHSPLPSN

SMILES | IC50 [1] [nM] | IC50 (PERK) [µM]
Cc1cc(NC(=O)C(O)c2ccccc2)ccc1-c1cnc(N)c(C(=O)NC(C)C)c1 (single isomer, unassigned) [Example 1, 2-amino-5-(4-(2-hydroxy-2-phenylacetamido)-2-methylphenyl)-N-isopropylnicotinamide] | 1 to 25 | 0.251 to 0.5
Cc1cc(NC(=O)C(O)c2ccccc2)ccc1-c1cnc(N)c(C(=O)NC(C)C)c1 (single isomer, unassigned) [Example 2, 2-amino-5-(4-(2-hydroxy-2-phenylacetamido)-2-methylphenyl)-N-isopropylnicotinamide] | 1 to 25 | 0.101 to 0.25
CNC(=O)c1cc(-c2ccc(NC(=O)C(O)c3cc(F)cc(F)c3)cc2C)cnc1N (single isomer, unassigned) [Example 10, 2-amino-5-(4-(2-(3,5-difluorophenyl)-2-hydroxyacetamido)-2-methylphenyl)-N-methylnicotinamide] | 1 to 25 | 0.051 to 0.1
CNC(=O)c1cc(-c2ccc(NC(=O)C(O)c3cc(F)cc(F)c3)cc2C)cnc1N (single isomer, unassigned) [Example 11, 2-amino-5-(4-(2-(3,5-difluorophenyl)-2-hydroxyacetamido)-2-methylphenyl)-N-methylnicotinamide] | 501 to 1000 | 1 to 2
CCNC(=O)c1cc(-c2ccc(NC(=O)C(O)c3cc(F)cc(F)c3)cc2C)cnc1N (single isomer, unassigned) [Example 12, 2-amino-5-(4-(2-(3,5-difluorophenyl)-2-hydroxyacetamido)-2-methylphenyl)-N-ethylnicotinamide] | 1 to 25 | 0.026 to 0.05
CCNC(=O)c1cc(-c2ccc(NC(=O)C(O)c3cc(F)cc(F)c3)cc2C)cnc1N (single isomer, unassigned) [Example 13, 2-amino-5-(4-(2-(3,5-difluorophenyl)-2-hydroxyacetamido)-2-methylphenyl)-N-ethylnicotinamide] | 1 to 25 | 0.501 to 1
Cc1cc(NC(=O)C(O)c2cc(F)cc(F)c2)ccc1-c1cnc(N)c(C(=O)NC(C)(C)C)c1 (single isomer, unassigned) [Example 16, 2-amino-N-(tert-butyl)-5-(4-(2-(3,5-difluorophenyl)-2-hydroxyacetamido)-2-methylphenyl) nicotinamide] | 26 to 50 | 0.101 to 0.25
Cc1cc(NC(=O)C(O)c2cc(F)cc(F)c2)ccc1-c1cnc(N)c(C(=O)NC(C)(C)C)c1 (single isomer, unassigned) [Example 17, 2-amino-N-(tert-butyl)-5-(4-(2-(3,5-difluorophenyl)-2-hydroxyacetamido)-2-methylphenyl) nicotinamide] | 251 to 500 | 0.501 to 1
Cc1cc(NC(=O)C(C)(O)c2ccccc2)ccc1-c1cnc(N)c(C(=O)NC(C)C)c1 (stereo not shown) [Example 3, 2-amino-5-(4-(2-hydroxy-2-phenylpropanamido)-2-methylphenyl)-N-isopropylnicotinamide] | 101 to 250 | 2 to 3
Cc1cc(NC(=O)C(C)(O)c2ccccc2)ccc1-c1cnc(N)c(C(=O)NC(C)C)c1 (stereo not shown) [Example 4, 2-amino-5-(4-(2-hydroxy-2-phenylpropanamido)-2-methylphenyl)-N-isopropylnicotinamide] | 101 to 250 | 3 to 4
COC(C(=O)Nc1ccc(-c2cnc(N)c(C(=O)NC(C)C)c2)c(C)c1)c1ccccc1 (stereo not shown) [Example 5, 2-amino-N-isopropyl-5-(4-(2-methoxy-2-phenylacetamido)-2-methylphenyl) nicotinamide] | 1000 to 2000 | 3 to 4
Cc1cc(NC(=O)C(N)c2ccccc2)ccc1-c1cnc(N)c(C(=O)NC(C)C)c1 (stereo not shown) [Example 6, 2-amino-5-(4-(2-amino-2-phenylacetamido)-2-methylphenyl)-N-isopropyl-nicotinamide] | 1000 to 2000 | 3 to 4

Now from value to compound:

IC50 [1] [nM] | IC50 (PERK) [µM] | SMILES
1 to 25 | 0.026 to 0.05 | Cc1cc(NC(=O)C(O)c2cc(F)cc(F)c2)ccc1-c1cnc(N)c(C(=O)NCC(F)(F)F)c1 (single isomer, unassigned) [Example 18, 2-amino-5-(4-(2-(3,5-difluorophenyl)-2-hydroxyacetamido)-2-methylphenyl)-N-(2,2,2-trifluoroethyl) nicotinamide]
101 to 250 | 0.101 to 0.25 | Cc1cc(NC(=O)C(O)c2cc(F)cc(F)c2)ccc1-c1cnc(N)c(C(=O)NCC(F)(F)F)c1 (single isomer, unassigned) [Example 19, 2-amino-5-(4-(2-(3,5-difluorophenyl)-2-hydroxyacetamido)-2-methylphenyl)-N-(2,2,2-trifluoroethyl) nicotinamide]
1 to 25 | 0.001 to 0.025 | CC(C)NC(=O)c1cc(-c2ccc(NC(=O)C(O)c3cc(F)cc(F)c3)cc2Cl)cnc1N (single isomer, unassigned) [Example 34]
51 to 100 | 0.101 to 0.25 | CC(C)NC(=O)c1cc(-c2ccc(NC(=O)C(O)c3cc(F)cc(F)c3)cc2Cl)cnc1N (single isomer, unassigned) [Example 35]
1 to 25 | 0.001 to 0.025 | CCc1cc(NC(=O)C(O)c2cc(F)cc(F)c2)ccc1-c1cnc(N)c(C(=O)NC(C)C)c1 (single isomer, unassigned) [Example 38, 2-amino-5-(4-(2-(3,5-difluorophenyl)-2-hydroxyacetamido)-2-ethylphenyl)-N-isopropylnicotinamide]
101 to 250 | 0.101 to 0.25 | CCc1cc(NC(=O)C(O)c2cc(F)cc(F)c2)ccc1-c1cnc(N)c(C(=O)NC(C)C)c1 (single isomer, unassigned) [Example 39, 2-amino-5-(4-(2-(3,5-difluorophenyl)-2-hydroxyacetamido)-2-ethylpehnyl)-N-isopropylnicotinamide]
1 to 25 | 0.026 to 0.05 | Cc1cc(NC(=O)C(O)c2cc(F)cc(F)c2)ccc1-c1cnc(N)c(C(=O)OC(C)C)c1 (single isomer, unassigned) [Example 42, isopropyl 2-amino-5-(4-(2-(3,5-difluorophenyl)-2-hydroxyacetamido)-2-methylphenyl) nicotinate]
51 to 100 | 0.251 to 0.5 | Cc1cc(NC(=O)C(O)c2cc(F)cc(F)c2)ccc1-c1cnc(N)c(C(=O)OC(C)C)c1 (single isomer, unassigned) [Example 43, isopropyl 2-amino-5-(4-(2-(3,5-difluorophenyl)-2-hydroxyacetamido)-2-methylphenyl) nicotinate]
1 to 25 | 0.001 to 0.025 | CCc1cccc(C(O)C(=O)Nc2ccc(-c3cnc(N)c(C(=O)NC(C)C)c3)c(C)c2)c1 (single isomer, unassigned) [Example 72, 2-amino-5-(4-(2-(3-ethylphenyl)-2-hydroxyacetamido)-2-methylphenyl)-N-isopropylnicotinamide]
101 to 250 | 0.251 to 0.5 | CCc1cccc(C(O)C(=O)Nc2ccc(-c3cnc(N)c(C(=O)NC(C)C)c3)c(C)c2)c1 (single isomer, unassigned) [Example 73, 2-amino-5-(4-(2-(3-ethylphenyl)-2-hydroxyacetamido)-2-methylphenyl)-N-isopropylnicotinamide]
1 to 25 | 0.001 to 0.025 | CCc1cc(NC(=O)C(O)c2cccc(Cl)c2)ccc1-c1cnc(N)c(C(=O)NC(C)C)c1 (single isomer, unassigned) [Example 108, 2-amino-5-(4-(2-(3-chlorophenyl)-2-hydroxyacetamido)-2-ethylphenyl)-N-isopropylnicotinamide]
51 to 100 | 0.101 to 0.25 | CCc1cc(NC(=O)C(O)c2cccc(Cl)c2)ccc1-c1cnc(N)c(C(=O)NC(C)C)c1 (single isomer, unassigned) [Example 109, 2-amino-5-(4-(2-(3-chlorophenyl)-2-hydroxyacetamido)-2-ethylphenyl)-N-isopropylnicotinamide]
1 to 25 | 0.001 to 0.025 | CCc1cc(NC(=O)C(O)c2cc(F)cc(F)c2)ccc1-c1cnc(N)c(C(=O)NCC(F)(F)F)n1 (single isomer, unassigned) [Example 154, 3-amino-6-(4-(2-(3,5-difluorophenyl)-2-hydroxyacetamido)-2-ethylphenyl)-N-(2,2,2-trifluoroethyl) pyrazine-2-carboxamide]
101 to 250 | 0.101 to 0.25 | CCc1cc(NC(=O)C(O)c2cc(F)cc(F)c2)ccc1-c1cnc(N)c(C(=O)NCC(F)(F)F)n1 (single isomer, unassigned) [Example 155, 3-amino-6-(4-(2-(3,5-difluorophenyl)-2-hydroxyacetamido)-2-ethylphenyl)-N-(2,2,2-trifluoroethyl) pyrazine-2-carboxamide]
